Test results from BindingDB's records for doi:10.1021/jm991049m (University of Camerino, 1999).

Assays:
[1] = Predicted affinity for imidazoline receptor I2 by three field CoMFA model
[2] = as above; remark: listed apart in the source
[3] = as above; remark: listed apart in the source

Compound	Ki [2] [nM]	further results
c1ccc([C@@H]2C[C@H]2C2=NCCN2)cc1	–	Ki [1]: 23 nM
c1ccc([C@@H]2C[C@@H]2C2=NCCN2)cc1	331	–
c1ccc([C@H]2C[C@H]2C2=NCCN2)cc1	724	–
c1ccc([C@H]2C[C@@H]2C2=NCCN2)cc1	–	Ki [3]: 251 nM
